Two compounds from US4673670A, “N^6 -acenaphthyl adenosines and analogs thereof” (Warner-Lambert Company, priority 1986, dated 1987) can be followed below.

Molecules are shown by their SMILES.

This assay concerns conscious rat. As to the kind of experiment: Antihypertensive evaluation (AHP3): aortic blood pressure and heart rate from conscious rats. The format is in vivo. To be noted: hour 1. The text has this: This test procedure is described in the following paragraphs.
A Method for the Direct Monitoring of Aortic Blood Pressure and Heart Rate from Conscious Rats
The continuous monitoring of pulsatile blood pressure (BP) from unrestrained conscious rats surgically equipped with polyethylene cannulas was accomplished by means of a computer assisted data capture scheme (CADCS). The basic elements of the methodology are the cannulation procedure and the CADCS.
Cannulation Procedure: Rats were anesthetized with Telazol (1:1 tiletamine HCl and zolazepam HCl); 20-40 mg/kg IM and the descending aorta exposed via a midline incision. Cannulas fabricated from polyethylene tubing were inserted into the aorta via an undersized puncture hole below the renal arteries. The puncture hole was made by a 23 G disposable needle with a section of the aorta clamped off above and below the puncture site. The cannulas, consisting of a PE100 (0.86 mm ID) body and a PE50 (0.58 mm ID) tip, were attached to a trocar, inserted through the psoas muscle, and passed subcutaneously along the midline of the back and externalized between the ears. […]
CADCS: The pulsatile blood pressure and heart rate of each of 32 rats was monitored every minute by means of two in-laboratory microcomputers communicating directly with a data concentrator computer. […]

With `OC[C@H]1O[C@@H](n2cnc3c(NC4Cc5cccc6cccc4c56)ncnc32)[C@H](O)[C@@H]1O` (some centres unmarked) [Example 1, N^6 -Acenaphthyladenosine], the “MAP (mean arterial pressure) decrease” value (30 mg/kg, ↓ = decrease) is 30%. As to `OC[C@H]1O[C@@H](n2cnc3c(NCC4=Cc5cccc6cccc4c56)ncnc32)[C@H](O)[C@@H]1O` [Example 2, N^6-(1-acenaphthylenylmethyl)adenosine], the “HR (heart rate) increase” value (10 mg/kg, ↑ = increase) came to 0%.
